The values below come from ChEMBL document CHEMBL1649307, “Development, validation, and routine application of a high-performance liquid chromatography method coupled with a single mass detector for quantification of itraconazole, voriconazole, and posaconazole in human plasma” (Antimicrob Agents Chemother, 2010).

The structures appear in SMILES notation.

Common to all, as to type: ADME, organism-based
What all share (conditions): in vivo

For data set [1], the system named is Plasma. The data set can be described thus: Metabolic stability in healthy human plasma assessed as compound recovery at 6 mg/kg BID. Set-up: dose 6 mg/kg.
Data set [2] has as its system Plasma. As to the kind of experiment: Metabolic stability in healthy human plasma assessed as compound recovery at 3 mg/kg QD. Also noted: dose 3 mg/kg.
The test system of data set [3] is Plasma. As to the kind of experiment: Metabolic stability in healthy human plasma assessed as compound recovery at 7 mg/kg BID. Also noted: dose 7 mg/kg.

Regarding `CC[C@@H]([C@H](C)O)n1ncn(-c2ccc(N3CCN(c4ccc(OC[C@@H]5CO[C@@](Cn6cncn6)(c6ccc(F)cc6F)C5)cc4)CC3)cc2)c1=O` [POSACONAZOLE], in the data set on Plasma [1], the Stability stood at 85.5%.

Regarding `CCC(C)n1ncn(-c2ccc(N3CCN(c4ccc(OCC5COC(Cn6cncn6)(c6ccc(Cl)cc6Cl)O5)cc4)CC3)cc2)c1=O` (stereo not drawn) [ITRACONAZOLE], in the data set on Plasma [2], the Stability is given as 114.5%.

Regarding `C[C@@H](c1ncncc1F)[C@](O)(Cn1cncn1)c1ccc(F)cc1F` [VORICONAZOLE], in the data set with Plasma [3], the Stability is listed as 97.2%.
